The molecules below were run against T1, LRRK2 (Homo sapiens, UniProt Q5S007) (assay: LRRK2 KI determination). Conditions: not given.
Format: biochemical
Target sequence in this assay (Q5S007 970-2527): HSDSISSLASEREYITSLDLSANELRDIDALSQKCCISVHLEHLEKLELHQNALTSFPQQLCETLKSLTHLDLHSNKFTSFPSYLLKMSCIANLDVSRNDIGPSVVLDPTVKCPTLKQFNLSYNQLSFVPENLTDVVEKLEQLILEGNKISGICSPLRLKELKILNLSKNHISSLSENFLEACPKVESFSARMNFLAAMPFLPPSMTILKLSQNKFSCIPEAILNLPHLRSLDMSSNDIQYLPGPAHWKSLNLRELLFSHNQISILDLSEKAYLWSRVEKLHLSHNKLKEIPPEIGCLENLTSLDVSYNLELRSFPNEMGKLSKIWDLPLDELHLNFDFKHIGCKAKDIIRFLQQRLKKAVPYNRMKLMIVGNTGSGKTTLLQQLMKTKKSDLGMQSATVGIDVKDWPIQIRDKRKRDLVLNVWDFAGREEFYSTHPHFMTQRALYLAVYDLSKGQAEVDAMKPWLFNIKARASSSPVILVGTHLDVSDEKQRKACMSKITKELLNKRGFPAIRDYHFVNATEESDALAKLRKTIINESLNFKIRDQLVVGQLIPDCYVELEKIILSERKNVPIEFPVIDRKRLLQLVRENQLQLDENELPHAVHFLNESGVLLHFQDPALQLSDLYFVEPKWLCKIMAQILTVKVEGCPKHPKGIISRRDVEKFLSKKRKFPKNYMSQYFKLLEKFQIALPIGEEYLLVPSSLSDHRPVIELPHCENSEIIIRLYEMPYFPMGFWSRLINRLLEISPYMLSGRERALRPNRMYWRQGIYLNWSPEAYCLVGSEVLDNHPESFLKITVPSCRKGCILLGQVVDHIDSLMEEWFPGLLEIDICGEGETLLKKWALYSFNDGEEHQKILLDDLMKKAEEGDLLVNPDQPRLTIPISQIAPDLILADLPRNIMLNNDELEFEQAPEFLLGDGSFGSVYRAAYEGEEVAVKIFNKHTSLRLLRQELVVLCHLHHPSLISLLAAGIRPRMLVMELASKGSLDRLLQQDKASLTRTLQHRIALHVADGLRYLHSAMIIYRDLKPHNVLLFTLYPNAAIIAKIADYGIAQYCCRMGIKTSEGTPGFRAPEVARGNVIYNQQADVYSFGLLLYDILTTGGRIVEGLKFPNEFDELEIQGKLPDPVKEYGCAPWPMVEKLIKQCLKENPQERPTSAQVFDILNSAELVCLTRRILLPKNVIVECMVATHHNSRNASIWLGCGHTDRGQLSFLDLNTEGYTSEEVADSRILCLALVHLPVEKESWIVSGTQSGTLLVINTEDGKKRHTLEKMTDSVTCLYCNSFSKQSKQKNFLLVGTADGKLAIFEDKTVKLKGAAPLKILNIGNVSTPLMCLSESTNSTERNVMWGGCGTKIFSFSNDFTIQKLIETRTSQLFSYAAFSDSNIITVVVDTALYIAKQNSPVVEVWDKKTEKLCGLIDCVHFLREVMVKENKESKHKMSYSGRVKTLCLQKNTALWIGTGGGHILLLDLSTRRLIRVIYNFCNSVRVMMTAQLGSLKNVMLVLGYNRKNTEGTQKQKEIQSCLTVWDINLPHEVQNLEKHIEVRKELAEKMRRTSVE

SMILES | Ki
Cc1cc2[nH]nc(-c3cc(C(F)(F)F)ncn3)c2c(NC2CCOCC2)n1 [Example 19, 6-methyl-N-(tetrahydro-2H-pyran-4-yl)-3-(6-(trifluoromethyl)pyrimidin-4-yl)-1H-pyrazolo[4,3-c]pyridin-4-amine] | < 100 nM
CCOc1cc(-c2n[nH]c3cc(C)nc(NC4CCOCC4)c23)ncn1 [Example 17, 3-(6-ethoxypyrimidin-4-yl)-6-methyl-N-(tetrahydro-2H-pyran-4-yl)-1H-pyrazolo[4,3-c]pyridin-4-amine] | < 100 nM
Cc1cc2[nH]nc(-c3cnn(C4CCOCC4)c3)c2c(OC2CCOCC2)n1 [Example 24, 6-Methyl-3-(1-(tetrahydro-2H-pyran-4-yl)-1H-pyrazol-4-yl)-4-(tetrahydro-2H-pyran-4-yloxy)-1H-pyrazolo[4,3-c]pyridine] | < 100 nM
Cc1[nH]nc2cc(C3CC3)nc(OC3CCCCC3)c12 [Example 14, 4-(cyclohexyloxy)-6-cyclopropyl-3-methyl-1H-pyrazolo[4,3-c]pyridine] | 100 to 1000 nM
Cc1cc2[nH]nc(-c3cc(C(=O)N(C)C)ccn3)c2c(NC2CCOCC2)n1 [Example 16, N,N-dimethyl-2-(6-methyl-4-(tetrahydro-2H-pyran-4-ylamino)-1H-pyrazolo[4,3-c]pyridin-3-yl)isonicotinamide] | 100 to 1000 nM
CC(C)n1cc(-c2n[nH]c3cc(C(F)(F)F)nc(OC4CCOCC4)c23)cn1 [Example 15, 3-(1-isopropyl-1H-pyrazol-4-yl)-4-(tetrahydro-2H-pyran-4-yloxy)-6-(trifluoromethyl)-1H-pyrazolo[4,3-c]pyridine] | < 100 nM
N#Cc1cc2[nH]nc(-c3ccnc(N4CCOCC4)c3)c2c(OC2CCOCC2)n1 [Example 13] | 100 to 1000 nM
Clc1cc2[nH]nc(-c3ccnc(N4CCOCC4)c3)c2c(OC2CCOCC2)n1 [Example 12, 4-(4-(6-chloro-4-(tetrahydro-2H-pyran-4-yloxy)-1H-pyrazolo[4,3-c]pyridin-3-yl)pyridin-2-yl)morpholine] | < 100 nM
CC(C)Cn1cc(-c2n[nH]c3cc(C#N)nc(OC4CCOCC4)c23)cn1 [Example 11, 3-(1-isobutyl-1H-pyrazol-4-yl)-4-(tetrahydro-2H-pyran-4-yloxy)-1H-pyrazolo[4,3-c]pyridine-6-carbonitrile] | < 100 nM
Cc1cc2[nH]nc(-c3ccnc(N4CCOCC4)c3)c2c(OC2CCOCC2)n1 [Example 22, 4-(4-(6-Methyl-4-(tetrahydro-2H-pyran-4-yloxy)-1H-pyrazolo[4,3-c]pyridin-3-yl)pyridin-2-yl)morpholine] | < 100 nM

Other lines, results leading:

Ki | SMILES
< 100 nM | COc1nc(C)cc2[nH]nc(-c3cnn(C4CCOCC4)c3)c12 [Example 25, 4-Methoxy-6-methyl-3-(1-(tetrahydro-2H-pyran-4-yl)-1H-pyrazol-4-yl)-1H-pyrazolo[4,3-c]pyridine]
< 100 nM | Cc1cc2[nH]nc(-c3cc(C(F)(F)F)ccn3)c2c(NC2CCOCC2)n1 [Example 18, 6-methyl-N-(tetrahydro-2H-pyran-4-yl)-3-(4-(trifluoromethyl)pyridin-2-yl)-1H-pyrazolo[4,3-c]pyridin-4-amine]
100 to 1000 nM | CNC(=O)c1cccc(-c2[nH]nc3cc(C)nc(OC)c23)c1 [Example 21, 3-(4-Methoxy-6-methyl-1H-pyrazolo[4,3-c]pyridin-3-yl)-N-methylbenzamide]
100 to 1000 nM | COc1nc(C)cc2[nH]nc(-c3ccnc(N4CCOCC4)c3)c12 [Example 20, 4-(4-(4-methoxy-6-methyl-1H-pyrazolo[4,3-c]pyridin-3-yl)pyridin-2-yl)morpholine]
100 to 1000 nM | CNC(=O)c1cccc(-c2[nH]nc3cc(C)nc(OC4CCOCC4)c23)c1 [Example 23, N-Methyl-3-(6-Methyl-4-(tetrahydro-2H-pyran-4-yloxy)-1H-pyrazolo[4,3-c]pyridin-3-yl)benzamide]

These molecules were tested against T1, LRRK2 (assay: LRRK2 protein kinase assay ([γ-33P] ATP, peptide substrate), IC50). Conditions: LRRK2 form (G2019S or wild type) not given; read-out: Potency scores (LRRK2 IC50).
Format: biochemical
Set-up: Potency scores (LRRK2 IC50); the wild type has the same borders, PV4873; fused on or other part: GST tag
Description: All LRRK2 protein kinases were of human origin and were sourced from Invitrogen Corporation (Carlsbad, Calif. 92008 USA) unless otherwise indicated. The active mutant used was recombinant human, catalytic domain (amino acids 970-2527) containing a G2019S mutation, GST-tagged, expressed in insect cells (Invitrogen Cat#PV4881). The wild type used was recombinant human, catalytic domain (amino acids 970-2527) GST—tagged, expressed in insect cells (Invitrogen Cat#PV4873). The kinase dead mutant used was recombinant human, catalytic domain (amino acids 970-2527) containing a D1994A mutation, GST-tagged, expressed in insect cells (Invitrogen Cat#PM4041AE). No special measures were taken to activate any of the kinases.
All assays were carried out at room temperature ([…]) and were linear with respect to time and enzyme concentration under the conditions used. Assays were performed for 180 min in a 96 well format. LRRK2 was present at a concentration of approximately 5 nM.
The enzyme was diluted and assayed in 50 mM Tris-HCl pH7.5, 0.1 mM EGTA, 1 mM DTT and 10 mM MgCl2. The concentration of magnesium chloride in the assay was 10 mM. The [γ-33P] ATP (0.4 μCi/well) was used at 134 uM for G2019S mutant and at 57 μM for the wild type kinase in order to be at Km. The peptide substrate in the assay was […] at 100 μM.
The assays were initiated with Mg/ATP and stopped by the addition of 25 μl/well 50% orthophosphoric acid. Reactions were harvested onto Whatman P81 Unifilter Plates (Fisher Scientific. Loughborough, LE115RG, UK. Cat# FDU-105-020U) using a Tomtec harvester (Tomtec Hamden, Conn. 06514. USA). Plates were counted using a Perkin Elmer Top Count NX7. (Perkin Elmer, Shelton CT 06484-4794 USA)
IC50 values of inhibitors were determined after carrying out assays at 10 different concentrations of each compound in duplicate.
Target sequence in this assay (Q5S007 whole entry G2019S, form open): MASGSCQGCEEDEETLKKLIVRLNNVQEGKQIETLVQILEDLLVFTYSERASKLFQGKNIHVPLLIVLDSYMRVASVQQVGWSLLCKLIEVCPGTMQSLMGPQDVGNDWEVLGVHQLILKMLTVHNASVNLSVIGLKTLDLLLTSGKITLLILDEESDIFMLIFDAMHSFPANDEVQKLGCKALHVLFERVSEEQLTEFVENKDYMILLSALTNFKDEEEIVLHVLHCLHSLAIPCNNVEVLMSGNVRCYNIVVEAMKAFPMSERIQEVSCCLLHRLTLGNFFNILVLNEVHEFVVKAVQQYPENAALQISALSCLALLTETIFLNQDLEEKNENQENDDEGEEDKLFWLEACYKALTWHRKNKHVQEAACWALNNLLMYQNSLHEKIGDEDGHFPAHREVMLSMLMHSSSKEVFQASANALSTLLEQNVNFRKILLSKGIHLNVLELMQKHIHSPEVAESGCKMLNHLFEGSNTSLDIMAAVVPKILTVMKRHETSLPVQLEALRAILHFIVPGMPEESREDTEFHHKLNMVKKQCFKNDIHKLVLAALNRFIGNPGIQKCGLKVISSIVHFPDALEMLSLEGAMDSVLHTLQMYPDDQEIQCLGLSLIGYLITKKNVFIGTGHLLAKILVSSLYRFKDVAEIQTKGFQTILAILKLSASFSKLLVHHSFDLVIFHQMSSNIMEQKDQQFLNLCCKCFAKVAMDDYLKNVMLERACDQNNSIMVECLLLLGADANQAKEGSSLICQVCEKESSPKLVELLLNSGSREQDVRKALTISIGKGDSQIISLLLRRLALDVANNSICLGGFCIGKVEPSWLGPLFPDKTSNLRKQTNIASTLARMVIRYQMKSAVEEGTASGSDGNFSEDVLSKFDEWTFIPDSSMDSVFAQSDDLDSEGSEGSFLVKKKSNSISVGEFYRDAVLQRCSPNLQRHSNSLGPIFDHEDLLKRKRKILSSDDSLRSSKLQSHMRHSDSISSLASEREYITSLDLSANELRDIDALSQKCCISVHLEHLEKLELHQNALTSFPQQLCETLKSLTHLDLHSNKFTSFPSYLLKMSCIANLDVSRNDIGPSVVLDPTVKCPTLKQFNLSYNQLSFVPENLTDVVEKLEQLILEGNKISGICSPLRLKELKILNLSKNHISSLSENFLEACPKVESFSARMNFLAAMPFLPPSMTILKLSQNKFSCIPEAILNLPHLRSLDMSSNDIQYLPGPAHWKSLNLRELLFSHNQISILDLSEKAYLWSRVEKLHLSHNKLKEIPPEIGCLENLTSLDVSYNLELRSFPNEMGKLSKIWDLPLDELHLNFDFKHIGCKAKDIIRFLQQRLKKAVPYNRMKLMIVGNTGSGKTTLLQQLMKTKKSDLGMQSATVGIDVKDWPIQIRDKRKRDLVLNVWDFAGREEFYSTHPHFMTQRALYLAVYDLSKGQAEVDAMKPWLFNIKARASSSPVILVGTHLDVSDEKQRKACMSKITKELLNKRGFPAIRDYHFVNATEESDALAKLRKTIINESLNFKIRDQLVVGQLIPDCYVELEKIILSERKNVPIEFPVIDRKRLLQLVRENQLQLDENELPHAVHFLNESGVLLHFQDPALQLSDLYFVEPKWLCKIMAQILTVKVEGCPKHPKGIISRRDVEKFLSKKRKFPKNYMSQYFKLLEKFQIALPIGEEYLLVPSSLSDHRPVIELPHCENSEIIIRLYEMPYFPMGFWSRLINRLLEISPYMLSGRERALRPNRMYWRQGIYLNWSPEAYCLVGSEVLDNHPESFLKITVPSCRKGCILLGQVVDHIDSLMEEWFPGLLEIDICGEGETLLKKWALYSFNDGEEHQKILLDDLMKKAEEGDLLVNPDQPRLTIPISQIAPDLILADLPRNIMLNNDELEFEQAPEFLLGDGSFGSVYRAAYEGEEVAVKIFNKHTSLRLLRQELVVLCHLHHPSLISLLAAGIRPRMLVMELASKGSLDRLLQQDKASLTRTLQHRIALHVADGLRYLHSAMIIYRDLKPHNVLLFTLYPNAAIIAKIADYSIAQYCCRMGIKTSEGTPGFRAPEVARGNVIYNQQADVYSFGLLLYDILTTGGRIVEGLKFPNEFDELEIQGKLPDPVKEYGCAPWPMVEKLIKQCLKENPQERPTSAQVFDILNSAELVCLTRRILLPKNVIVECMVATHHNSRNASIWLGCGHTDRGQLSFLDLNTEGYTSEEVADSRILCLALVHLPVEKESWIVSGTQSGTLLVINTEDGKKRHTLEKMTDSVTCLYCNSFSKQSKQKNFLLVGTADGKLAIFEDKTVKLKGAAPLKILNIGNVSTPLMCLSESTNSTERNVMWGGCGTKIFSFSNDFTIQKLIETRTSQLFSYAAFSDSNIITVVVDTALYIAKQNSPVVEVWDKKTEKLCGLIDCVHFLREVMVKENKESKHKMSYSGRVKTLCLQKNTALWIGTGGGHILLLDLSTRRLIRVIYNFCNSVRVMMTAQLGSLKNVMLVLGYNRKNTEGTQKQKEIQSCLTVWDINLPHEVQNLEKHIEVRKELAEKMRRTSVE

IC50 | SMILES
100 to 1000 nM | Cc1n[nH]c2cc(Cl)nc(NC3CCCCC3)c12 [Example 1]
100 to 1000 nM | Cc1cc2[nH]nc(C)c2c(OC2CCCCC2)n1 [Example 6]
1000 to 10000 nM | Cc1n[nH]c2cc(N3CCOCC3)nc(OC3CCCCC3)c12 [Example 3]
100 to 1000 nM | Cc1n[nH]c2cncc(NC3CCCCC3)c12 [Example 9]
100 to 1000 nM | Cc1n[nH]c2cc(Cl)nc(OC3CCCCC3)c12 [Example 2]
1000 to 10000 nM | Cc1n[nH]c2cc(-c3cnn(C)c3)nc(OC3CCCCC3)c12 [Example 4]
100 to 1000 nM | Cc1cc2[nH]nc(C)c2c(-c2ccco2)n1 [Example 7]
100 to 1000 nM | Cc1n[nH]c2cncc(-c3ccco3)c12 [Example 8]
1000 to 10000 nM | Cc1cc2[nH]nc(C)c2c(NC2CCCCC2)n1 [Example 5]
100 to 1000 nM | Cc1n[nH]c2cncc(OC3CCCCC3)c12 [Example 10]

Source: US20130267513A1, “PYRAZOLOPYRIDINES AS INHIBITORS OF THE KINASE LRRK2” (priority 2010, published 2013)
